From article PMC8705706, “Benzimidazole Derivatives as New and Selective Inhibitors of Arginase from Leishmania mexicana with Biological Activity against Promastigotes and Amastigotes” (International Journal of Molecular Sciences, 2021)
Counter-ions that a name gives are not always drawn.

What was measured:
[1] = system: amastigote of L. mexicana; assay: Biological activity against intracellular amastigotes in J774.2 macrophages, resazurin; format: cell-based, Leishmania mexicana; conditions: intracellular L. mexicana amastigotes in J774.2 macrophages, 48 h
Method: Biological activity of the benzimidazole derivatives was also evaluated against the amastigote of L. mexicana. For this, 5 × 10^4 murine macrophages J774.2 (ATCC® TIB-67) per well were grown in a plate of 96 wells with RPMI medium at […], 5% CO2 during 24 h. The cells were infected with promastigotes in log phase in a 10:1 proportion (parasite: macrophage) and they were incubated at 37 °C, 5% CO2 during 24–48 h. A wash with RPMI medium to remove the not-infected promastigotes was made. Compounds were added in a serial dilution from 100 µg to 0.8 µg/mL in triplicate and were incubated at 37 °C, 5% CO2 for 48 h. Glucantime, Amphotericin B and Miltefosine were used as reference drugs. Then, the cells were lysed with a non-complemented Schneider’s medium lysis solution with SDS 0.01%, after incubating for 20 min the lysis solution was removed. Afterwards, Schneider medium was added incubating at 26 °C during four days at room temperature to differentiate intracellular amastigotes from free amastigotes. Thereafter, 20 µL of resazurin 2.5 mM was added to each well and incubated during 3 h. Fluorescence intensity and IC50 were measured as described for promastigotes. The assays were made by triplicate in 3 independent experiments.

[2] = system: Murine macrophages J774.2; design: method as in Matadamas-Martínez et al., 2019 [28]; conditions: J774.2 murine macrophages; previous study under the same conditions; ref Matadamas-Martínez et al., 2019 [28]; cited from earlier work
[3] = system: Promastigotes of L. mexicana (MNYC/BZ/62/M379); assay: Biological activity against promastigotes, resazurin; format: cell-based, Leishmania mexicana; conditions: 48 h
Method: Promastigotes of L. mexicana (MNYC/BZ/62/M379 reference strain) were grown in Schneider’s medium supplemented with fetal bovine serum 10% (v/v), ampicillin (100 U/mL)/streptomycin (100 µg/mL). Parasites were collected at log phase to assess the compounds and 5 × 10^5 promastigotes were seeded in a 96-wells plate. Compounds were previously dissolved in dimethyl sulfoxide (DMSO) up to a concentration of 1 mg/mL. Thereafter, serial dilutions were made with culture medium from 100 µg/mL to 0.8 µg/mL and then they were added to the wells by triplicates. Parasites non treated and treated with Glucantime, Amphotericin B and Miltefosine were included as […]. Parasites were incubated at 26 °C during 48 h and resazurin 2.5 mM was added at the end into each well. Afterwards, fluorescence intensity was measured with excitation/emission 535/590 nm in a spectrofluorometer (Infinite 200, Tecan Group Ltd., Mannedorf, Switzerland). Finally, half maximal inhibitory concentration (IC50) was determined through a Probit analysis. The assays were made by triplicate in 3 independent experiments.

[4] = system: L. amazonensis promastigotes; design: method as in PMID 33198198; conditions: cited from earlier work
human arginase 1 (HsARG) = molecular target: T1, human arginase 1 (HsARG) (Homo sapiens, UniProt P05089); assay: Inhibition of recombinant human arginase 1, colorimetric urea assay; format: biochemical; conditions: for Selectivity LmARG versus HsARG: comparison of inhibition of LmARG and HsARG; for Inhibition of recombinant HsARG: highest concentration possible to be tested, 1 mM
T1 construct: made in house; host or cells: E. coli BL21(DE3)pLysS
T1 sequence (P05089 1-322): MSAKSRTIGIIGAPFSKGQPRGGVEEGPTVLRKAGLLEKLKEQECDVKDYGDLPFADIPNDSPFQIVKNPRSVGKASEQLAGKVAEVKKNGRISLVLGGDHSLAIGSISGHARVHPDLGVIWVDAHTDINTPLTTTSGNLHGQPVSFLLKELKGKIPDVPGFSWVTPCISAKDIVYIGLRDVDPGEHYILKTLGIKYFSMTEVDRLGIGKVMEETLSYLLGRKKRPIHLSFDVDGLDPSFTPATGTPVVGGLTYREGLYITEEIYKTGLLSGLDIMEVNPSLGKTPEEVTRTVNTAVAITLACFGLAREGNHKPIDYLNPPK
Method: (§1) The activity of the recombinant arginases was measured in a colorimetric assay with some modifications. Briefly, the enzyme (2 µg) was previously activated with 1 mM MnCl2, 100 mM Tris-HCl, pH 8 during 15 min at 37 °C. Thereafter, 50 mM L-arginine was added, and the reaction was stopped after 10 min using 30 µL of an acid mixture (H2SO4, H3PO4 and H2O [1:3:7]), and 20 µL of 245 mM of α-isonitrosopropiophenone (dissolved in ethanol). Samples were heated in a thermocycler at 95 °C for 1 h. The urea in the samples was measured at 550 nm in a Synergy H1 Hybrid Multi-Mode Microplate Reader (BioTek).
(§2) The fifty molecules with the highest docking score were selected for inhibition studies that were made under the conditions mentioned above, adding the respective compound (dissolved in DMSO) at a concentration of 200 µM, keeping a final 10% DMSO concentration. The concentration that inhibits 50% of the enzyme activity (I50) was determined through curves at different compound concentrations. The I50 was obtained fitting the curves to the equation reported by Téllez-Valencia, et al., 2002 [25].

[5] = Cytotoxicity assay, resazurin; format: cell-based; conditions: mouse, J774.2 murine macrophages, maximum concentration evaluated
Method: Murine macrophages J774.2 (ATCC® TIB-67) (5 × 10^4 cells/well) were grown in plates of 96 wells for 24 h at 37 °C in 5% CO2. Thereafter, compounds were added in serial diluted concentrations (100 to 0.8 µg/mL) and they were incubated during 24 h. The cellular vitality was evaluated using resazurin, adding 20 µL to each well at 2.5 mM incubating 4 h. Finally, the cytotoxic concentration (CC50) was determined through a Probit analysis. The assays were made by triplicate in 3 independent experiments. CC50 values of Amphotericin B, Miltefosine and Glucantime were taken from a previous study performed under the same conditions by our research group.

[6] = molecular target: recombinant arginase from Leishmania mexicana (LmARG) (Leishmania mexicana, UniProt Q6TUJ5); assay: Inhibition of recombinant LmARG, colorimetric urea assay; format: biochemical; conditions: for Inhibition behavior of LmARG: I50 curves; for inhibition at 200 µM: read-out: % Inhibition LmARG [200 μM]; for IC50: recombinant LmARG, read-out: I50 (concentration that inhibits 50% enzyme activity), LmARG
Method: as §1, §2

promastigotes = conditions: cited from earlier work

Question: With `CSc1nc2cc(N3CCNCC3)c(Cl)cc2[nH]1` (as salt: HCl) [Compound 6, 6-Chloro-2-(methylthio)-5-(piperazin-1-yl)-1H-benzimidazole] as the molecule, how does the melting point read?
Answer: 235 to 237 °C

Question: For `COC(=O)Nc1nc2ccc(Cl)cc2n1C` (hydrate or solvate) [Compound 8, Methyl (6-chloro-1-methyl-1H-benzimidazol-2-yl)carbamate], which melting point is on record?
Answer: 191.3 to 192.4 °C

Question: What does the source list for `C[C@@H]1[C@H](O)[C@@H](C)/C=C/C=C/C=C/C=C/C=C/C=C/C=C/[C@H](O[C@@H]2O[C@H](C)[C@@H](O)[C@H](N)[C@@H]2O)C[C@@H]2O[C@](O)(C[C@@H](O)C[C@@H](O)[C@H](O)CC[C@@H](O)C[C@@H](O)CC(=O)O[C@H]1C)C[C@H](O)[C@H]2C(=O)O` [Amphotericin B]?
Answer: IC50 ([1]; Leishmania mexicana): 1.3 µM; CC50 [2]: 7.4 µM; IC50 ([3]; Leishmania mexicana): 0.89 µM

Question: With `O=C(/C=C/c1ccc(O)c(O)c1)Nc1ccccc1` [CAPA, caffeic acid phenylamide] as the molecule, how does the IC50 [4] read?
Answer: 82.6 µM

Question: With `COC(=O)Nc1nc2cc(Cl)ccc2n1C` [Compound 1, Methyl (5-chloro-1-methyl-1H-benzimidazol-2-yl)carbamate] as the molecule, how does the IC50 ([1]; Leishmania mexicana) read?
Answer: 32 µM

Question: And the IC50 ([3]; Leishmania mexicana)?
Answer: 64 µM

Question: What about the “Selectivity LmARG versus HsARG” value (human arginase 1 (HsARG)) of the same molecule?
Answer: selective to the enzyme from parasite

Question: What about the “Inhibition of recombinant HsARG” value (human arginase 1 (HsARG)) of the same molecule?
Answer: none of the compounds inhibit completely the enzyme

Question: And the CC50 at 24 h [5]?
Answer: > 417 µM

Question: What about the “Inhibition behavior of LmARG” value [6] of the same molecule?
Answer: cooperative behavior

Question: And the inhibition at 200 µM [6]?
Answer: 100%

Question: And the IC50 [6]?
Answer: 52 µM

Question: With `CSc1nc2cc(C(N)=O)c(Cl)cc2[nH]1` [Compound 2, 6-Chloro-2-(methylthio)-1H-benzimidazole-5-carboxamide] as the molecule, how does the IC50 ([1]; Leishmania mexicana) read?
Answer: 101 µM

Question: And the IC50 ([3]; Leishmania mexicana)?
Answer: 132 µM

Question: And the “Selectivity LmARG versus HsARG” value (human arginase 1 (HsARG))?
Answer: selective to the enzyme from parasite

Question: And the “Inhibition of recombinant HsARG” value (human arginase 1 (HsARG))?
Answer: none of the compounds inhibit completely the enzyme

Question: And the CC50 at 24 h ([5]; J774.2 macrophages)?
Answer: > 414 µM

Question: What about the “Inhibition behavior of LmARG” value [6] of the same molecule?
Answer: cooperative behavior

Question: And the inhibition at 200 µM [6]?
Answer: 100%

Question: What about the IC50 [6] of the same molecule?
Answer: 82 µM

Question: For `COC(=O)c1cc2c(cc1Cl)nc(SCC=NNC(N)=O)n2C` [Compound 3, Methyl 2-((2-(2-carbamoylhydrazineylidene)ethyl)thio)-5-chloro-1-methyl-1H-benzimidazole-6-carboxylate], which melting point is on record?
Answer: 196.7 to 197.1 °C

Question: And the inhibition at 200 µM [6]?
Answer: 60%

Question: With `CC(=O)c1nc2cc(Cl)ccc2n1C` [Compound 4] as the molecule, how does the inhibition at 200 µM [6] read?
Answer: 56%

Question: Which inhibition at 200 µM [6] does the source give for `CNC(=O)c1nc2ccc(Cl)cc2n1C` [Compound 5] here?
Answer: 56%

Question: With `CSc1nc2cc(N3CCNCC3)c(Cl)cc2[nH]1` [Compound 6, 6-Chloro-2-(methylthio)-5-(piperazin-1-yl)-1H-benzimidazole] as the molecule, how does the inhibition at 200 µM [6] read?
Answer: 46%

Question: What does the source list for `COC(=O)c1cc2c(cc1Cl)nc(SCCNC(=N)N)n2C` [Compound 7, Methyl 5-chloro-2-((2-guanidinoethyl)thio)-1-methyl-1H-benzimidazole-6-carboxylate]?
Answer: melting point: 172.9 to 173.4 °C; inhibition at 200 µM [6]: 40%

Question: With `COC(=O)Nc1nc2ccc(Cl)cc2n1C` [Compound 8, Methyl (6-chloro-1-methyl-1H-benzimidazol-2-yl)carbamate] as the molecule, how does the inhibition at 200 µM [6] read?
Answer: 40%

Question: For `CCCSc1ccc2c(c1)nc(NC(=O)OC)n2C` [Compound 9, Methyl (1-methyl-5-(propylthio)-1H-benzimidazol-2-yl)carbamate], which melting point is on record?
Answer: 120.5 to 122.1 °C

Question: What about the inhibition at 200 µM [6] of the same molecule?
Answer: 36%

Question: With `CC(=O)c1nc2ccc(Cl)cc2n1C` [Compound 10] as the molecule, how does the inhibition at 200 µM [6] read?
Answer: 33%

Question: For `CNc1ccc(Cl)cc1N` [Compound 11], which inhibition at 200 µM [6] is on record?
Answer: 33%

Question: With `CNc1cc(Cl)ccc1N` [Compound 12] as the molecule, how does the inhibition at 200 µM [6] read?
Answer: 30%

Question: For `CCCSc1ccc(NC)c(N)c1` [Compound 13], which inhibition at 200 µM [6] is on record?
Answer: 27%

Question: For `COC(=O)c1cc2nc(S)[nH]c2cc1Cl` [Compound 15], which inhibition at 200 µM [6] is on record?
Answer: 25%

Question: For `COC(=O)c1cc2c(cc1Cl)nc(S)n2C` [Compound 16], which inhibition at 200 µM [6] is on record?
Answer: 25%

Question: With `CCCCCCCCCCCCCCCCOP(=O)([O-])OCC[N+](C)(C)C` [Miltefosine] as the molecule, how does the IC50 ([1]; Leishmania mexicana) read?
Answer: 8.6 µM

Question: What about the CC50 [2] of the same molecule?
Answer: 141 µM

Question: What about the IC50 ([3]; Leishmania mexicana) of the same molecule?
Answer: 8.1 µM

Question: For `NC(=NCCC[C@H](N)C(=O)O)NO` [NOHA], which EC50 in promastigotes (promastigotes) is on record?
Answer: millimolar order

Question: With `N=C(NO)NCC[C@H](N)C(=O)O` [nor-NOHA] as the molecule, how does the EC50 in promastigotes (promastigotes) read?
Answer: millimolar order

Question: Which IC50 [1] does the source give for meglumine antimoniate [Glucantime] here?
Answer: 35 µM

Question: What about the CC50 [2] of the same molecule?
Answer: > 273 µM

Question: What about the IC50 [3] of the same molecule?
Answer: 101 µM
